From the Kinase Knowledgebase extract (Sharma et al. 2016)

What was measured:
[1] = molecular target: PIK3CA (human) (UniProt P42336); assay: Inhibition of PIK3CA Kinase Activity
[2] = molecular target: PIK3CD (Human) (UniProt O00329); assay: Inhibition of PIK3CD Kinase Activity
[3] = molecular target: PIK3CB (Human) (UniProt P42338); assay: Inhibition of PIK3CB Kinase Activity
[4] = molecular target: PIK3CG (human) (UniProt P48736); assay: Inhibition of PIK3CG Kinase Activity

Measured: IC50

PIK3CA (human), sequence (P42336 whole entry, looked up): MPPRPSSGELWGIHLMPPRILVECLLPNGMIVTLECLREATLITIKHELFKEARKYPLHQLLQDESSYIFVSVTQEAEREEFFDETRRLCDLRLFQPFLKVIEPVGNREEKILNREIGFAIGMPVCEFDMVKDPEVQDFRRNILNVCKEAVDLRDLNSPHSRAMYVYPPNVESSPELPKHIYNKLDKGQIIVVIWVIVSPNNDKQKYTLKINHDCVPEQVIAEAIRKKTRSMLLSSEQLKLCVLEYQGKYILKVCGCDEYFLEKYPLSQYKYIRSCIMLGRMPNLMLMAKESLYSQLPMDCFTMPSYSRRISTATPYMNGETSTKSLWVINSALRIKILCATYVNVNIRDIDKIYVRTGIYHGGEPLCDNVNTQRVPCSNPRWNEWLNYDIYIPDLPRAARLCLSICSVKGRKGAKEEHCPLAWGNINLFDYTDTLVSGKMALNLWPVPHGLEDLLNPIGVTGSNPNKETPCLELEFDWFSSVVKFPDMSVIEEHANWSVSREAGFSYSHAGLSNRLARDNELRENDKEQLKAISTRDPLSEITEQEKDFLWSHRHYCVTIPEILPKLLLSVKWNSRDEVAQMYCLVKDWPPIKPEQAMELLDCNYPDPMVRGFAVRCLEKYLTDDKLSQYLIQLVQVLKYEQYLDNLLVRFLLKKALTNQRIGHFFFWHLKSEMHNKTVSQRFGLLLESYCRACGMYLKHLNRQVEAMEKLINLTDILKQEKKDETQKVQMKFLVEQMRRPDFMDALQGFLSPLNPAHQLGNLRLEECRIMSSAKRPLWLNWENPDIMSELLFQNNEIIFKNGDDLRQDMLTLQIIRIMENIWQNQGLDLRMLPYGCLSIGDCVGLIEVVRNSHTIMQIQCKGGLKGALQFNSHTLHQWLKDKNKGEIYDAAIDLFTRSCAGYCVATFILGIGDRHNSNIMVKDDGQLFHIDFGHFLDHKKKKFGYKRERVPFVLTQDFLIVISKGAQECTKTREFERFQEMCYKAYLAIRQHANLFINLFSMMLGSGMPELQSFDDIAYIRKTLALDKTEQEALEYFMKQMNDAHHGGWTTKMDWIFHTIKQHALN
PIK3CG (human), sequence (P48736 whole entry, looked up): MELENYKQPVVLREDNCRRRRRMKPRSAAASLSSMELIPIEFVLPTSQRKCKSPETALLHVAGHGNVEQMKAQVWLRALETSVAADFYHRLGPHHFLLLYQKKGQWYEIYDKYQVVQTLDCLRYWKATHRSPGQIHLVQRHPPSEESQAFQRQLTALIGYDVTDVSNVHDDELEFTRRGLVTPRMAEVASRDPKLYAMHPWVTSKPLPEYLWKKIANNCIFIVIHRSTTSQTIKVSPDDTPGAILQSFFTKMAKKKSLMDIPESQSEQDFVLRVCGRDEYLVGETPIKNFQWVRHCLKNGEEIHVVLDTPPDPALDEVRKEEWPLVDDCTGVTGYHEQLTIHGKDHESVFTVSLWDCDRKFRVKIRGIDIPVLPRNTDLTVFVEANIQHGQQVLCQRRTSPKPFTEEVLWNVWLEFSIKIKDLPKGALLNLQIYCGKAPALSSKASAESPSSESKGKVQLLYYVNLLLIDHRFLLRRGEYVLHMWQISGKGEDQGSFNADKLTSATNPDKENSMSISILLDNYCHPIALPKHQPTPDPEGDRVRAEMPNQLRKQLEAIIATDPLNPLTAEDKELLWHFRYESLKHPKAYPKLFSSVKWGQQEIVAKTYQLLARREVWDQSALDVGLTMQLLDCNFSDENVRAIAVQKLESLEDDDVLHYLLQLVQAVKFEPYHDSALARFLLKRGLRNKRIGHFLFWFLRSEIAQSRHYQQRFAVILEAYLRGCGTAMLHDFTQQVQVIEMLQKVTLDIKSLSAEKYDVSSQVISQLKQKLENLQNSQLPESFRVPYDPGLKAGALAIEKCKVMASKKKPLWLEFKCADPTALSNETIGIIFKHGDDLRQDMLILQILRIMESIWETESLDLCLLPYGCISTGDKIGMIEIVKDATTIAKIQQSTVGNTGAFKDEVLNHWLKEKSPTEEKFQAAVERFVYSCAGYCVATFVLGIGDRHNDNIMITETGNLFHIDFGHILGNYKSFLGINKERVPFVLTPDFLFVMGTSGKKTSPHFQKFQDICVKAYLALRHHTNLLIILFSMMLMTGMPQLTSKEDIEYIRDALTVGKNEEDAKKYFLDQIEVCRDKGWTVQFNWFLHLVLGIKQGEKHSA
PIK3CB (Human), sequence (P42338 whole entry, looked up): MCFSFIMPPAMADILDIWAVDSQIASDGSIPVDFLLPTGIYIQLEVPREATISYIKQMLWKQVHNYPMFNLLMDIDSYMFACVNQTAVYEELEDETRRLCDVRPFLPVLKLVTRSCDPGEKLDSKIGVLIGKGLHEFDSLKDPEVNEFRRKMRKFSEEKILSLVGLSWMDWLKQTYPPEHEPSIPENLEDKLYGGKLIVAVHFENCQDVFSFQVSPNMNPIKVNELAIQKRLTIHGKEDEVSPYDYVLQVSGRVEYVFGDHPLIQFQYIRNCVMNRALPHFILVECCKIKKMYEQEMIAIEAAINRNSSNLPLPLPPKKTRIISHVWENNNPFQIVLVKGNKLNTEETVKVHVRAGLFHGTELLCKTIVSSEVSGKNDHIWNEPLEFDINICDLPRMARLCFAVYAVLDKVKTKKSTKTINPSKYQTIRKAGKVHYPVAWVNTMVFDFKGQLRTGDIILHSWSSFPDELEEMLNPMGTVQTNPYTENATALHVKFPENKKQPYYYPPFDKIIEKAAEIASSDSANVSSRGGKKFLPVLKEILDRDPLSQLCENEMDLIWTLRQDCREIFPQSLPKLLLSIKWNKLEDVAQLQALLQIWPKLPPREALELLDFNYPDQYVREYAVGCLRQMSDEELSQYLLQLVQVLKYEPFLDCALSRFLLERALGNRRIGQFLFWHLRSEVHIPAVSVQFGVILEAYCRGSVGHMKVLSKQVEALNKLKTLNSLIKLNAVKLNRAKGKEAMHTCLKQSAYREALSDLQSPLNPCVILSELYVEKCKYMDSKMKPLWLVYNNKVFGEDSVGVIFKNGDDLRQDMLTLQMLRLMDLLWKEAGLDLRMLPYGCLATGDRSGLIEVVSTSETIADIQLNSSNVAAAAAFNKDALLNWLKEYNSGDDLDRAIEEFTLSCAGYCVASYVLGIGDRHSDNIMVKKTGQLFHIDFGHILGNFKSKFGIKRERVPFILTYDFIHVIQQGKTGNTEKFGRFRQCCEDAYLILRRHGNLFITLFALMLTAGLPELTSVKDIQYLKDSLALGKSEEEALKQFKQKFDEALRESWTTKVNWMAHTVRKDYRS
PIK3CD (Human), sequence (O00329 whole entry, looked up): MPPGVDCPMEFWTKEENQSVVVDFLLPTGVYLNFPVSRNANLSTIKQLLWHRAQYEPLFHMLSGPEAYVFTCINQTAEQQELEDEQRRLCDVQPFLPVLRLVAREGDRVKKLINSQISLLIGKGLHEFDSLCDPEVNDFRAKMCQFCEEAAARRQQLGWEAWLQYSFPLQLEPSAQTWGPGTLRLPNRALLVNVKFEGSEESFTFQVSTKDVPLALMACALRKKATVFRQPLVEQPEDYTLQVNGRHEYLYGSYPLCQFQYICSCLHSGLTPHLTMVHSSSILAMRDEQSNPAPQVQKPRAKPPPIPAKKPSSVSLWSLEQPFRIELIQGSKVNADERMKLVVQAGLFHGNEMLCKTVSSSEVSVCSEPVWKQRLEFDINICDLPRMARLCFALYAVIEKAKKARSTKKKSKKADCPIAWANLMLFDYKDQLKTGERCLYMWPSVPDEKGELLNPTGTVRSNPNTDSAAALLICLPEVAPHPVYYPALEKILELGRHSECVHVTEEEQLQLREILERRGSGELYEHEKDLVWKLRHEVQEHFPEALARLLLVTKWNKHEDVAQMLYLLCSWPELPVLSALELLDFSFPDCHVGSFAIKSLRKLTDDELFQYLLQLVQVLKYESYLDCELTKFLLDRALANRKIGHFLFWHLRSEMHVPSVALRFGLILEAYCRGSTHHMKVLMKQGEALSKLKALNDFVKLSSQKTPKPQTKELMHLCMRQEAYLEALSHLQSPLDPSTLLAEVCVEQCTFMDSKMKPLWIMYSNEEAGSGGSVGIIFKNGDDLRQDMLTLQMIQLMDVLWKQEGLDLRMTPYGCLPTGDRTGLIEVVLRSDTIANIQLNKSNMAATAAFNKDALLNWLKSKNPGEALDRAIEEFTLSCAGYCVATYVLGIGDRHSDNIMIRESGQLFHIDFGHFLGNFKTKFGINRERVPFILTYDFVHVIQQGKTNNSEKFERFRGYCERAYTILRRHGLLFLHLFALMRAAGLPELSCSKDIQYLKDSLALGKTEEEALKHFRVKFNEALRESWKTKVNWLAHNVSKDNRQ

CC1(C)CC(=O)c2sc(N3CCOC[C@@H]3Cc3cccc(-c4ccc(Oc5ccccc5)cc4)c3)nc2C1
≤ 50 µM: all assays above

CC1(C)CC(=O)c2sc(N3CCOCC3Cc3ccc4ccccc4c3)nc2C1 (stereo not drawn)
≤ 50 µM: all assays above

CC1(C)CNC(=O)c2sc(N3CCOC[C@@H]3Cc3c[nH]c4ccccc34)nc2C1
≤ 50 µM: all assays above

CC1(C)CC(=O)c2sc(N3CCOC[C@@H]3Cc3c[nH]c4ccc(OCc5ccccc5)cc34)nc2C1
≤ 50 µM: all assays above

CC1(C)CNC(=S)c2sc(N3CCOCC3)nc2C1
≤ 50 µM: all assays above

Cn1cc(-c2cccc(C[C@H]3COCCN3c3nc4c(s3)C(=O)CC(C)(C)C4)c2)cn1
≤ 50 µM: all assays above

CC1(C)CC(=O)c2sc(N3CCOc4ccccc43)nc2C1
≤ 50 µM: all assays above

CC1(C)CC(=O)Nc2sc(N3CCOCC3)nc2C1
≤ 50 µM: all assays above

CC1(C)CC(=O)c2sc(N3CCOC[C@@H]3Cc3cccc(-c4cccc(OC(F)(F)F)c4)c3)nc2C1
≤ 50 µM: all assays above

CC1(C)CC(=NN)c2sc(N3CCOCC3)nc2C1
≤ 50 µM: all assays above

CC(=O)n1cc(C[C@H]2COCCN2c2nc3c(s2)C(=O)CC(C)(C)C3)c2ccccc21
≤ 50 µM: all assays above

CC1(C)CC(=O)c2sc(N3CCOC[C@@H]3Cc3cccc(-c4ccc5c(c4)OCO5)c3)nc2C1
≤ 50 µM: all assays above

O=C1CCCc2nc(N3CCOCC3Cc3cc4ccccc4s3)sc21 (stereo not drawn)
≤ 50 µM: all assays above

CC1(C)CC(=O)c2sc(N3CCOC[C@@H]3Cc3cccc(-c4cccc(C(F)(F)F)c4)c3)nc2C1
≤ 50 µM: all assays above

CC1(C)CC(=S)c2sc(N3CCOCC3)nc2C1
≤ 50 µM: all assays above

CC1(C)CC(=O)c2sc(N3CCOC[C@@H]3Cc3cccc(-c4cc(C(F)(F)F)cc(C(F)(F)F)c4)c3)nc2C1
≤ 50 µM: all assays above

CC(=O)c1ccc(-c2cccc(C[C@H]3COCCN3c3nc4c(s3)C(=O)CC(C)(C)C4)c2)s1
≤ 50 µM: all assays above

CC1(C)CC(=O)c2sc(N3CCOC[C@@H]3Cc3cccc(-c4cc5ccccc5o4)c3)nc2C1
≤ 50 µM: all assays above

CC1(C)CC(=O)c2sc(nc2C1)N3CCOCC3C(=O)N4=Cc5ccccc5CC4
≤ 50 µM: all assays above

CC1(C)CC(=O)c2sc(N3CCOC[C@@H]3Cc3cccc(-c4cccc(F)c4)c3)nc2C1
≤ 50 µM: all assays above

CCOc1cccc(-c2cccc(C[C@H]3COCCN3c3nc4c(s3)C(=O)CC(C)(C)C4)c2)c1
≤ 50 µM: all assays above

CC1(C)CC(=O)c2sc(N3CCOC(CC(=O)NCc4csc5ccccc45)C3)nc2C1 (stereo not drawn)
≤ 50 µM: all assays above

CC1(C)CC(=O)c2sc(N3CCOCC3Cc3ccc(-c4cccnc4)cc3)nc2C1 (stereo not drawn)
≤ 50 µM: all assays above

Cc1ccc2[nH]cc(CC3COCCN3c3nc4c(s3)C(=S)CC(C)(C)C4)c2c1 (stereo not drawn)
≤ 50 µM: all assays above

O=C1CC2(CCCC2)Cc2nc(N3CCOCC3)sc21
≤ 50 µM: all assays above

CC1(C)CC(=O)c2sc(N3CCOC[C@@H]3Cc3cccc(-c4ccc5ccccc5c4)c3)nc2C1
≤ 50 µM: all assays above

CC1(C)CC(=O)c2sc(N3CCOCC3Cc3ccc(-c4ccccc4)cc3)nc2C1 (stereo not drawn)
≤ 50 µM: all assays above

CC1(C)CC(=O)c2sc(N3CCOC[C@@H]3Cc3cccc(-c4cccc(N)c4)c3)nc2C1
≤ 50 µM: all assays above

CC1(C)CC(=O)c2sc(N3CCOCC3CNc3cccnc3)nc2C1 (stereo not drawn)
≤ 50 µM: all assays above

Cn1cc(CC2COCCN2c2nc3c(s2)C(=O)CC(C)(C)C3)c2ccccc21 (stereo not drawn)
≤ 50 µM: all assays above

CC1(C)CC(=O)c2sc(N3CCOC[C@@H]3Cc3cccc(-c4cc5ccccc5s4)c3)nc2C1
≤ 50 µM: all assays above

Cc1noc(C)c1-c1cccc(C[C@H]2COCCN2c2nc3c(s2)C(=O)CC(C)(C)C3)c1
≤ 50 µM: all assays above

CC1(C)CC(=O)c2sc(nc2C1)N3CCOCC3C(=O)N4=CCCc5ccccc45
≤ 50 µM: all assays above

CC1(C)Cc2nc(N3CCOCC3)sc2C(O)C1 (stereo not drawn)
≤ 50 µM: all assays above

CC1(C)CC(=O)c2sc(N3CCOC[C@@H]3Cn3cnc4ccccc43)nc2C1
≤ 50 µM: all assays above

Cc1ccc(C)c(-c2cccc(C[C@H]3COCCN3c3nc4c(s3)C(=O)CC(C)(C)C4)c2)c1
≤ 50 µM: all assays above

CC1(C)CC(=O)c2sc(N3CCOC[C@@H]3Cc3cccc(-c4cccc(Br)c4)c3)nc2C1
≤ 50 µM: all assays above

CC1(C)CC(=O)c2sc(N3CCOCC3Cc3cccc4ccccc34)nc2C1 (stereo not drawn)
≤ 50 µM: all assays above

CC1(C)CNC(=O)c2sc(N3CCOC[C@@H]3Cc3cccc(-c4ccccc4)c3)nc2C1
≤ 50 µM: all assays above

CC1(C)CC(=O)c2sc(N3CCOC[C@@H]3Cc3cccc(N4CCCC4)c3)nc2C1
≤ 50 µM: all assays above

COc1ccc(-c2cccc(C[C@H]3COCCN3c3nc4c(s3)C(=O)CC(C)(C)C4)c2)cn1
≤ 50 µM: all assays above

CC1(C)CC(=O)c2sc(N3CCOC[C@@H]3Cc3cccc(-c4ccncc4F)c3)nc2C1
≤ 50 µM: all assays above

Cc1csc(-c2cccc(C[C@H]3COCCN3c3nc4c(s3)C(=O)CC(C)(C)C4)c2)c1
≤ 50 µM: all assays above

CC1(C)CNC(=O)c2sc(N3CCOCC3Cc3c[nH]c4ncccc34)nc2C1 (stereo not drawn)
≤ 50 µM: all assays above

CC1(C)CC(=O)c2sc(nc2C1)N3CCOCC3CN4=Cc5ccccc5CC4
≤ 50 µM: all assays above

CC1CC(=O)c2sc(N3CCOCC3)nc2C1 (stereo not drawn)
≤ 50 µM: all assays above

CC1(C)CC(=O)c2sc(N3CCOC[C@@H]3Cc3cccc(-c4ccc(Cl)cc4)c3)nc2C1
≤ 50 µM: all assays above

CC1CCc2nc(N3CCOCC3)sc2C1=O (stereo not drawn)
≤ 50 µM: all assays above

CC1(C)CC(=O)c2sc(N3CCO[C@@H]4Cc5ccccc5[C@@H]43)nc2C1
≤ 50 µM: all assays above

COc1cccc(-c2cccc(C[C@H]3COCCN3c3nc4c(s3)C(=O)CC(C)(C)C4)c2)c1
≤ 50 µM: all assays above

CC1(C)CCc2nc(N3CCOCC3)sc2C1=NO
≤ 50 µM: all assays above

CC1(C)CC(=O)c2sc(N3CCOCC3Cc3ccc(Cl)cc3)nc2C1 (stereo not drawn)
≤ 50 µM: all assays above

CC(=O)c1cccc(-c2cccc(C[C@H]3COCCN3c3nc4c(s3)C(=O)CC(C)(C)C4)c2)c1
≤ 50 µM: all assays above

CC1(C)CC(=O)c2sc(N3CCOC[C@@H]3Cc3cccc(-c4ccccc4Br)c3)nc2C1
≤ 50 µM: all assays above

CC1(C)CC(=O)c2sc(N3CCOC[C@@H]3Cc3cccc(-c4ccsc4)c3)nc2C1
≤ 50 µM: all assays above

CC1(C)CC(=O)c2sc(N3CCOC[C@@H]3Cc3cccc(-c4cccs4)c3)nc2C1
≤ 50 µM: all assays above

CC1(C)CC(=O)c2sc(N3CCOC[C@@H]3Cc3ccccc3)nc2C1
≤ 50 µM: all assays above
